89 compounds from a melting point compilation (Tetko et al.; mined from patent text by program, amines drawn as free bases though some values may be those of a salt) can be followed below.

Compound `CC1(C)CC(=O)Nc2c(CCN3CCN(c4noc5ccccc45)CC3)cc(F)cc21` yielded a melting point of 230 °C.
To `O=C(NCC(=O)N1CCSC1)c1cc2cc(Cl)ccc2[nH]1` belongs 253 to 255 °C; to `Nc1cc(C(=O)O)c(F)c(F)c1F`, 164 to 166 °C.
As to `COc1cc(-c2c3c(cc4ccc5c(c24)OCO5)C(=O)NC3)ccc1OCc1ccccc1`, the melting point fell in the range of 236 to 239 °C.
In turn, `Nc1cc(Cl)ccc1Oc1c(C(=O)O)n(Cc2ccccc2)c2ccccc12` came in with a melting point of 218 to 219 °C.
On to `O=C(c1ccccc1)c1c[nH]nc1-c1cccc(Cl)c1`, for which the melting point was 161 to 164 °C.
The value for `Cc1c(-c2ccc(Cl)cc2)ccc2nc(C(=O)NC(Cc3ccc(OCc4ccccc4)cc3)C(=O)O)cn12` (centres undefined) was 263 to 264 °C; that for `CCOc1ccc(OC)c2c1CCC=C2` was 59 to 60 °C; that for `O=C(O)CCCCNC(=O)C(CS)Cc1ccccc1` (centres undefined) was 78 to 79 °C.
The compound `CCn1c(CCOC(N)=O)nc(C(C)C)c1Sc1cc(Cl)cc(Cl)c1` showed a melting point of 161 to 162 °C.
In turn, `O=C(O)c1cn2c3c(cc(F)cc3c1=O)CCC2C(F)(F)F` (centres undefined) came in with a melting point of 295 to 297 °C.
As to `Nc1c(-c2ccc(I)cc2)nc2ccc(Cl)cc2c1C(=O)O`, the melting point was 243 to 245 °C.
In turn, `O=C(O)CCNC(=O)c1ccc(-c2ccccc2OC2OC(CO)C(O)C(O)C2O)cc1` (centres undefined) yielded a melting point of 101 to 104 °C.
For the compound `OCC1(Cc2ccc(Cl)c(Cl)c2)CCNCC1`, the melting point fell in the range of 148 to 149 °C.
`CN(C(=O)CNc1nc(-c2ccccc2)ncc1[N+](=O)[O-])c1ccccc1`: the melting point lay within 194 to 196 °C.
The compound `C[C@H](NC(=O)c1c[nH]c2ncc(-c3nn(C)c4cc(Cl)ccc34)nc12)C(C)(C)C#N` yielded a melting point of 322 to 328 °C.
For `c1ccc2c(c1)nc1snc(-c3cnccn3)n12`, the melting point was 255 to 256 °C.
On to `N#CC=C(N)c1cccs1`, for which the melting point was 50 to 54 °C.
As to `FC(F)(F)c1ccc(Oc2cc(Cl)nc(Cl)c2)c(Cl)c1`, the melting point came out at 66 °C.
In turn, `COc1cccc2c1nc(Cl)n2C` registered a melting point of 118 to 119 °C.
On to `CCC1(C2CCCC2)Cc2cc(OCCCC(=O)O)c(Cl)c(Cl)c2C1=O` (centres undefined), for which the melting point fell in the range of 189 to 193 °C.
For `O=C(Nc1ccc(Br)cn1)[NH+]([O-])C(=O)c1c(Cl)cccc1Cl` (centres undefined), the melting point lay within 230 to 235 °C.
In turn, `COc1c(N2CCC(N)C2)c(F)cc2c(=O)c(C(=O)O)cn(C3CC3)c12` (centres undefined) showed a melting point of 208 to 212 °C.
For the compound `N#Cc1cc(NC(=O)c2ccc3ccccc3c2)ccc1N1CCC(O)CC1`, the melting point was 183 to 185 °C.
`Cn1cc(-c2ccnc(N[C@H]3CC[C@H](O)CC3)n2)c2ccccc21` came in with a melting point of 194 to 195 °C.
For the compound `Cc1ccc(S(=O)(=O)Nc2cccc(-c3cc(O)c(SCCc4ccccc4)c(=O)o3)c2)cc1`, the melting point lay within 133 to 135 °C.
In turn, `NOCc1nnc2n1-c1ccc(Cl)cc1C(c1ccccc1)=NC2` gave a melting point of 183 to 186 °C.
As to `C[C@@H]1CN2C(=O)c3ccccc3[C@@](O)(c3ccc(F)cc3)C2=N1`, the melting point was in the range of 229 to 232 °C.
As for `Cc1nccc(C(=O)O)c1-c1nc(-c2ccc(Cl)cc2)cs1`, the melting point is 92 to 94 °C.
On to `Nc1ccccc1SCC(C(=O)O)c1ccc(C(F)(F)F)cc1` (centres undefined), for which the melting point was 138 °C.
`COC(=O)N1C2=C(C(=O)CC(C)(C)C2)C(c2ccc([N+](=O)[O-])cc2)C2=C1CC(C)(C)CC2=O` yielded a melting point of 189 to 190 °C.
To `NC(=O)N(O)Cc1ccc(Oc2ccc(-n3ccnc3)cc2)o1` belongs 155 °C.
On to `CC(C)c1nsc(N=C(Cl)N(C)C)c1C#N`, for which the melting point was in the range of 72 to 75 °C.
As to `CSC1Cc2cc(Cl)ccc2C1=O` (centres undefined), the melting point came out at 90 °C.
The compound `Cc1cccc(Nc2n[nH]c3ncnc(NCc4ccccc4)c23)c1` registered a melting point of 200 to 201 °C.
Compound `CCOc1cc(-c2cc(C(F)(F)F)n3ncc(C(=O)O)c3n2)ccc1C(F)(F)F` displayed a melting point of 264 °C.
In the case of `CCCN(CCC)Cc1coc(-c2ncn3c2CN(C)C(=O)c2ccccc2-3)n1`, the melting point lay within 109 to 110 °C.
With `Cc1cc2c(c(C)c1S(=O)(=O)C[N+](=O)[O-])CCCO2`, the melting point lay within 136 to 138 °C.
For `NC1=NC(c2ccccc2)=NCC1(N)N=O` (centres undefined), the melting point is 243 to 244 °C.
`COc1ccc(Cn2c(=O)c(Cl)nc3ccc4ccccc4c32)c(OC)c1` gave a melting point of 186 °C.
Compound `O=C(O)c1cccc(-c2cccc3nc(Cc4cccc(C(F)(F)F)c4)oc23)c1` gave a melting point of 175 to 176 °C.
Compound `CC(C)c1ccccc1Sc1c(O)cc(-c2cccc(Cl)c2)oc1=O` gave a melting point of 177 to 178 °C.
The value for `COc1cc2c(cc1OC)CCCC(C(=O)N1CCN(C(=O)c3cc(OC)c(OC)c(OC)c3)CC1)=C2` was 164 to 165 °C; that for `NC(=O)OCCn1nccc1-c1ccc(Oc2ccc(F)cc2)cc1` was 120 to 125 °C; that for `CCOP(=O)(OCC)C(c1cccnc1)C(O)c1ccccc1` (centres undefined) was 238 °C.
With `COc1ccccc1S(=O)(=O)OCC(=O)c1ccccc1`, the melting point is 88 °C.
To `O=C(Nc1c[nH]nc1C(=O)NCCNc1ccccc1)c1ccccn1` belongs 184 to 186 °C.
Compound `CCC(=O)Nc1ccc(NC(=O)CN2CCN(CCCCC(c3ccc(F)cc3)c3ccc(F)cc3)C(C(N)=O)C2)c(C(C)=O)c1` (centres undefined) came in with a melting point of 163 °C.
In turn, `CCCc1cc(CCC)n2nc(C)c(C#N)c2n1` had a melting point of 73 to 74 °C.
`CCOC(=O)CCCOc1ccc2nc3c(cc2c1)CC(=O)N3` came in with a melting point of 181 °C.
`COC(=O)C(C(=O)OC)[C@H]1C=Cc2ccccc2[C@H]1O` (relative stereo): the melting point lay within 65 to 67 °C.
To `CCCCNC(=O)CP(=O)(O)O` belongs 115 to 125 °C.
Compound `COC(=O)CC[C@H](NC(=O)c1cccc(CCC2CNc3nc(NC(=O)C(C)(C)C)nc(O)c3C2)c1)C(=O)OC` (some centres undefined) registered a melting point of 141 to 148 °C.
The value for `CCOC(=O)c1ncn2c1[C@@H]1CCN1C(=O)c1sccc1-2` was 188 to 191 °C; that for `CC[C@H](COC)n1cc(Br)nc(N2CCc3cc(Cl)cc(Cl)c32)c1=O` was 150 to 152 °C.
Take `COc1ccc(C=CC2=NNC(C)Cc3cc4c(cc32)OCO4)c(OC)c1` (centres undefined): the melting point is 176 to 178 °C.
Take `N#Cc1ccc(-c2cc3ccccc3[nH]2)cc1`: the melting point is 201 °C.
The value for `CCOC(=O)C1=C(N)Nc2ncnc(OC(C)C)c2C1c1ccccc1OC` (centres undefined) was 222 to 223 °C; that for `O=C1COC2CCCc3nc4ccccc4c(c32)N1` (centres undefined) was 173 to 175 °C.
Consider `CCOC(=O)c1ccc(C(=O)O)c2c([N+](=O)[O-])cccc12`, for which the melting point fell in the range of 178 to 180 °C.
To `O=C(Nc1ccc(C(F)(F)F)cc1)Nc1ccc(C(=O)N2CCOCC2)s1` belongs 250 to 253 °C; to `CC(=O)SCC(CC1CN(Cc2ccccc2)CCO1)C(=O)Nc1cccc(C(=O)O)c1` (centres undefined), 103 to 105 °C; to `O=C(NCCCOCCCNC(=O)c1ccc(OC(F)(F)F)cc1)c1ccc(OC(F)(F)F)cc1`, 118 to 120 °C.
For `COc1ccc(S(=O)(=O)C(C)(Cc2ccc(-c3ccccc3)cc2)C(=O)NO)cc1` (centres undefined), the melting point worked out at 177 °C.
In turn, `Brc1ccc(-c2coc3ccc(-c4ccccc4)cc23)cc1` showed a melting point of 90 to 92 °C.
As to `Nc1ccc(C(=O)N2Cc3ccccc3Cc3ccccc32)c(Cl)c1`, the melting point fell in the range of 158 to 161 °C.
In turn, `COc1cccc(CC(=O)O)c1OCCCc1cn(-c2ccc(NC(=O)C(C)C)cn2)nc1C(C)C` came in with a melting point of 122 to 123 °C.
For the compound `CC1=N/C(=C\c2c[nH]c3ncc(Cl)cc23)C(=O)N1C`, the melting point fell in the range of 295 to 300 °C.
`Fc1ccc2c(c1F)OCc1csc(=S)n1-2` had a melting point of 163 to 167 °C.
The value for `CCCCCCc1oc(C=Cc2ccccc2)nc1CC(=O)O` was 107 to 108 °C; that for `O=C(/C=C/c1c[nH]c2ccc(OCc3ccccc3)cc12)c1ccncc1` was 218 to 221 °C.
In turn, `Cc1c(-c2ccccc2)sc2c1c(=O)c(C(=O)C(C)C)cn2Cc1c(F)cccc1F` came in with a melting point of 205 to 207 °C.
Regarding `CCc1nc(Cl)c([N+](=O)[O-])c(NC2CC2)n1`, the melting point lay in the range of 61 to 62 °C.
For `CCCOc1cc(Br)ccc1-c1nc2cc3ncn(Cc4ccc(F)cc4)c3cc2c(=O)[nH]1`, the melting point is 295 to 297 °C.
Regarding `Cc1cccc(-c2c(CBr)n(C)c(=O)n(C)c2=O)c1`, the melting point lay within 136 to 137 °C.
As for `O=c1c2ccccc2c(-c2ccccc2)cn1CCCO`, the melting point came out at 84 °C.
With `COc1cccc2c1C(c1ccccc1Cl)NC(=O)C2` (centres undefined), the melting point lay within 230 to 233 °C.
Turning to `CC(Cc1ccc(C(=O)OCOC(=O)C(C)(C)C)cc1)NCC(O)c1ccc(O)c(CO)c1` (centres undefined), the melting point lay within 55 to 57 °C.
Compound `CC1C(=CC2C(C(=O)O)C2(C)C)C1(F)F` (centres undefined) had a melting point of 97.7 °C.
With `CC(C)Oc1cc(/C=C/C(=O)O)n(Cc2ccc(C(F)(F)F)cc2Cl)n1`, the melting point lay in the range of 170 to 171 °C.
For `O=[N+]([O-])c1ccc(Oc2cc(Cl)ncn2)cc1`, the melting point is 125 to 127 °C.
`CCCCNc1nc(=O)c2c(C)nn3c2n1CC(C)=C3c1ccccc1` showed a melting point of over 300 °C.
`CCOC(=O)c1cnc2c(c1O)CCCCCCCC2`: the melting point was 212 to 230 °C.
With `CC(=O)CC(=O)Nc1ccc(SC(F)(F)F)cc1`, the melting point was 120 to 122 °C.
The value for `N#Cc1ccc(-c2ccc(-c3ccc(C#N)cc3)o2)cc1` was 294 to 295 °C; that for `NS(=O)(=O)c1c(Cl)cccc1Cn1cncn1` was 175 to 178 °C; that for `CC(=O)OC1CSC(Oc2ccc3c(c2)nnn3C)C(OC(C)=O)C1OC(C)=O` (centres undefined) was 80 °C.
In turn, `COc1cc(C(=O)N2CCC(CCN3CCC(C(=O)c4nc5ccccc5n4CCCC(=O)O)CC3)(c3ccc(Cl)c(Cl)c3)C2)cc(OC)c1OC` (centres undefined) showed a melting point of 125 to 140 °C.
As for `Cc1ccc(Cl)c(Nc2ccccc2-c2n[nH]c(=S)o2)c1Cl`, the melting point was in the range of 257 to 259 °C.
